Results as given in ChEMBL document CHEMBL3588760, “Inhibitors of melanogenesis in B16 melanoma 4A5 cells from flower buds of Lawsonia inermis (Henna)” (Bioorg Med Chem Lett, 2015).

Tests used:
[1] = Cytotoxicity against mouse B16-4A5 cells assessed as cell viability at 100 uM after 70 hrs by WST-8 assay relative to control; assay type: cell-based; conditions: read-out: Activity
[2] = Inhibition of melanogenesis in theophylline-stimulated mouse B16-4A5 cells at 1 uM after 72 hrs by microplate reader analysis relative to control; assay type: functional; conditions: B16-4A5, 72 h
[3] = Inhibition of melanogenesis in theophylline-stimulated mouse B16-4A5 cells at 100 uM after 72 hrs by microplate reader analysis relative to control; assay type: functional; conditions: B16-4A5, 72 h
[4] = Cytotoxicity against mouse B16-4A5 cells assessed as cell viability at 10 uM after 70 hrs by WST-8 assay relative to control; assay type: cell-based; conditions: read-out: Activity
[5] = Inhibition of melanogenesis in theophylline-stimulated mouse B16-4A5 cells at 10 uM after 72 hrs by microplate reader analysis relative to control; assay type: functional; conditions: B16-4A5, 72 h
[6] = target: Plasminogen (Homo sapiens) (UniProt P00747); assay: Inhibition of plasmin (unknown origin) at 100 uM after 18 hrs by arianor mahogany dye-based fibrin plate assay relative to control
[7] = Cytotoxicity against mouse B16-4A5 cells assessed as cell viability at 1 uM after 70 hrs by WST-8 assay relative to control; assay type: cell-based; conditions: read-out: Activity
[8] = Cytotoxicity against mouse B16-4A5 cells assessed as cell viability at 30 uM after 70 hrs by WST-8 assay relative to control; assay type: cell-based; conditions: read-out: Activity
[9] = Inhibition of melanogenesis in theophylline-stimulated mouse B16-4A5 cells at 30 uM after 72 hrs by microplate reader analysis relative to control; assay type: functional; conditions: B16-4A5, 72 h
[10] = Inhibition of melanogenesis in theophylline-stimulated mouse B16-4A5 cells at 3 uM after 72 hrs by microplate reader analysis relative to control; assay type: functional; conditions: B16-4A5, 72 h
[11] = target: T1, Tyrosinase (Agaricus bisporus) (UniProt O42713); assay: Inhibition of mushroom tyrosinase using L-DOPA as substrate assessed as dopaquinone production at 100 uM after 5 mins by microplate reader analysis relative to control
T1 sequence (whole entry): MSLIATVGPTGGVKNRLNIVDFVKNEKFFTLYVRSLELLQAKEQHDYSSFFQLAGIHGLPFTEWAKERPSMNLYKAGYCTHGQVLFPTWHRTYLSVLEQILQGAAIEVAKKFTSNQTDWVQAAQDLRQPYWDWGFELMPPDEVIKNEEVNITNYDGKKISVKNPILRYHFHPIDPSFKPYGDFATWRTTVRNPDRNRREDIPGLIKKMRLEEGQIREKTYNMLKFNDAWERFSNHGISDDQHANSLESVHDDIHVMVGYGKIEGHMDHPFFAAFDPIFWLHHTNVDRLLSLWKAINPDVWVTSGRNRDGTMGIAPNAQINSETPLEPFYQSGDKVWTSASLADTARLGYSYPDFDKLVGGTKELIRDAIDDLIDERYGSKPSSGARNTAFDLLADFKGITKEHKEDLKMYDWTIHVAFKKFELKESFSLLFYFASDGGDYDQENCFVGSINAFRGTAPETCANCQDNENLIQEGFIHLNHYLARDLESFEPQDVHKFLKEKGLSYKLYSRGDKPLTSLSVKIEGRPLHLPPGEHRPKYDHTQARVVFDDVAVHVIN

[12] = Cytotoxicity against mouse B16-4A5 cells assessed as cell viability at 3 uM after 70 hrs by WST-8 assay relative to control; assay type: cell-based; conditions: read-out: Activity
[13] = Downregulation of TRP-1 mRNA expression in theophylline-stimulated mouse B16-4A5 cells assessed as ratio of TRP-1 mRNA to beta-actin mRNA level at 30 uM after 72 hrs by qPCR analysis; assay type: functional, cell-based
[14] = Downregulation of TRP-1 mRNA expression in theophylline-stimulated mouse B16-4A5 cells assessed as ratio of TRP-1 mRNA to beta-actin mRNA level at 10 uM after 72 hrs by qPCR analysis; assay type: functional, cell-based
[15] = Downregulation of TRP-2 mRNA expression in theophylline-stimulated mouse B16-4A5 cells assessed as ratio of TRP-2 mRNA to beta-actin mRNA level at 10 uM after 72 hrs by qPCR analysis; assay type: functional, cell-based
[16] = Downregulation of TRP-2 mRNA expression in theophylline-stimulated mouse B16-4A5 cells assessed as ratio of TRP-2 mRNA to beta-actin mRNA level at 30 uM after 72 hrs by qPCR analysis; assay type: functional, cell-based
[17] = Downregulation of tyrosinase mRNA expression in theophylline-stimulated mouse B16-4A5 cells assessed as ratio of tyrosinase mRNA to beta-actin mRNA level at 3 uM after 72 hrs by qPCR analysis; assay type: functional, cell-based
[18] = Downregulation of tyrosinase mRNA expression in theophylline-stimulated mouse B16-4A5 cells assessed as ratio of tyrosinase mRNA to beta-actin mRNA level at 30 uM after 72 hrs by qPCR analysis; assay type: functional, cell-based
[19] = Downregulation of tyrosinase mRNA expression in theophylline-stimulated mouse B16-4A5 cells assessed as ratio of tyrosinase mRNA to beta-actin mRNA level at 10 uM after 72 hrs by qPCR analysis; assay type: functional, cell-based
[20] = Downregulation of TRP-2 mRNA expression in theophylline-stimulated mouse B16-4A5 cells assessed as ratio of TRP-2 mRNA to beta-actin mRNA level at 3 uM after 72 hrs by qPCR analysis; assay type: functional, cell-based
[21] = Downregulation of TRP-1 mRNA expression in theophylline-stimulated mouse B16-4A5 cells assessed as ratio of TRP-1 mRNA to beta-actin mRNA level at 3 uM after 72 hrs by qPCR analysis; assay type: functional, cell-based

Plasminogen (Homo sapiens), sequence (P00747 97-580 limits assumed): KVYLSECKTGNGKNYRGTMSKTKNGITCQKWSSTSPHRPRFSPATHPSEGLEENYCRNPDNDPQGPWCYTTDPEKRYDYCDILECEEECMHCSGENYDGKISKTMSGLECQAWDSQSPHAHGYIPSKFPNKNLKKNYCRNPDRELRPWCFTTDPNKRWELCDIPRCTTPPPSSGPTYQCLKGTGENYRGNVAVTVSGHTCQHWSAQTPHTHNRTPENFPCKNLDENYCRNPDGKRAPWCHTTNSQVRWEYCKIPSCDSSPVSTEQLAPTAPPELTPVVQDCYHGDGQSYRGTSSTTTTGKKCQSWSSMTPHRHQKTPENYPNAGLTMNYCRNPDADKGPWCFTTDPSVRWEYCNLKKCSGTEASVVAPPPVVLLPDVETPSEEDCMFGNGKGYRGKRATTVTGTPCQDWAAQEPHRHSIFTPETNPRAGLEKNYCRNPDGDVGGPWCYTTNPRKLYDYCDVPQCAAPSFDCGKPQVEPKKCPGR
Plasminogen (Homo sapiens), sequence (P00747 581-810 limits assumed): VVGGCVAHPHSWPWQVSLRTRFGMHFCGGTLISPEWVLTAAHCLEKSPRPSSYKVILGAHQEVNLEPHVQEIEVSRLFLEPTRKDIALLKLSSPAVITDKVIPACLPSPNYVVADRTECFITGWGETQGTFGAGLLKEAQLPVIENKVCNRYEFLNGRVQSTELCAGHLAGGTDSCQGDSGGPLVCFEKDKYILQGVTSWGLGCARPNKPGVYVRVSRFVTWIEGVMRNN

## O=c1c(O[C@@H]2O[C@H](CO)[C@@H](O)[C@H](O)[C@H]2O)c(-c2ccc(O)c(O)c2)oc2cc(O)cc(O)c12 [ISOQUERCETIN]
[1]
  viability at 70 h, 100 µM: 76.3%
[2]
  inhibition at 1 µM: 16.7%
[3]
  inhibition at 100 µM: 20.7%
[4]
  viability at 70 h, 10 µM: 95.4%
[5]
  inhibition at 10 µM: 20.7%
[6]
  inhibition: -2.5%
[7]
  viability at 70 h, 1 µM: 99.8%
[8]
  viability at 70 h, 30 µM: 87%
[9]
  inhibition at 30 µM: 23.2%
[10]
  inhibition at 3 µM: 33.2%
[11]
  inhibition: 5%
[12]
  viability at 70 h, 3 µM: 100%

## O=c1cc(-c2ccc(O)c(O)c2)oc2cc(O[C@@H]3O[C@H](CO)[C@@H](O)[C@H](O)[C@H]3O)cc(O)c12 [GALUTEOLIN]
[1]
  viability at 70 h, 100 µM: 57.6%
[2]
  inhibition at 1 µM: 14.8%
[3]
  inhibition at 100 µM: 15.1%
[4]
  viability at 70 h, 10 µM: 103%
[5]
  inhibition at 10 µM: 45.1%
[6]
  inhibition: 61%
[7]
  viability at 70 h, 1 µM: 101%
[8]
  viability at 70 h, 30 µM: 85.5%
[9]
  inhibition at 30 µM: 11%
[10]
  inhibition at 3 µM: 14%
[12]
  viability at 70 h, 3 µM: 104%

## O=c1cc(-c2ccc(O)c(O)c2)oc2cc(O)cc(O)c12 [LUTEOLIN]
[13]
  Ratio: 0.83
[14]
  Ratio: 0.86
[15]
  Ratio: 0.89
[1]
  viability at 70 h, 100 µM: 12.6%
[16]
  Ratio: 0.82
[17]
  Ratio: 0.72
[2]
  inhibition at 1 µM: 6.2%
[18]
  Ratio: 0.46
[4]
  viability at 70 h, 10 µM: 77.2%
[5]
  inhibition at 10 µM: 38.1%
[19]
  Ratio: 0.74
[20]
  Ratio: 0.9
[6]
  inhibition: 28.7%
[7]
  viability at 70 h, 1 µM: 103%
[8]
  viability at 70 h, 30 µM: 63.8%
[9]
  inhibition at 30 µM: 76.7%
[21]
  Ratio: 0.93
[10]
  inhibition at 3 µM: 13.5%
[11]
  inhibition: 33.5%
[12]
  viability at 70 h, 3 µM: 102%

## NC[C@H]1CC[C@H](C(=O)O)CC1
[6]
  inhibition: 9.5%

## COc1ccc(-c2cc(=O)c3c(O)cc(O[C@@H]4O[C@H](CO)[C@@H](O)[C@H](O)[C@H]4O)cc3o2)cc1 [TILIANINE]
[2]
  inhibition at 1 µM: -5.9%
[4]
  viability at 70 h, 10 µM: 74.2%
[5]
  inhibition at 10 µM: -36.6%
[6]
  inhibition: -8.1%
[7]
  viability at 70 h, 1 µM: 93.2%
[10]
  inhibition at 3 µM: -1.1%
[11]
  inhibition: 5.3%
[12]
  viability at 70 h, 3 µM: 98.3%

## O=C1CC(c2ccc(O)c(O)c2)Oc2cc(O)cc(O)c21 (racemic)
[13]
  Ratio: 0.29
[14]
  Ratio: 0.36
[15]
  Ratio: 0.55
[1]
  viability at 70 h, 100 µM: 55.9%
[16]
  Ratio: 0.43
[17]
  Ratio: 0.97
[2]
  inhibition at 1 µM: 5.8%
[3]
  inhibition at 100 µM: 61.1%
[18]
  Ratio: 0.38
[4]
  viability at 70 h, 10 µM: 88.2%
[5]
  inhibition at 10 µM: 37.2%
[19]
  Ratio: 0.66
[20]
  Ratio: 0.67
[6]
  inhibition: 20.7%
[7]
  viability at 70 h, 1 µM: 108%
[8]
  viability at 70 h, 30 µM: 72.6%
[9]
  inhibition at 30 µM: 42.5%
[21]
  Ratio: 0.94
[10]
  inhibition at 3 µM: 10.3%
[11]
  inhibition: 3.1%
[12]
  viability at 70 h, 3 µM: 101%

## O=c1c(O)c(-c2ccc(O)c(O)c2)oc2cc(O)cc(O)c12 [QUERCETIN]
[13]
  Ratio: 0.7
[14]
  Ratio: 0.68
[15]
  Ratio: 0.72
[16]
  Ratio: 0.59
[17]
  Ratio: 0.56
[2]
  inhibition at 1 µM: 13.9%
[18]
  Ratio: 0.45
[4]
  viability at 70 h, 10 µM: 106%
[5]
  inhibition at 10 µM: 34.3%
[19]
  Ratio: 0.55
[20]
  Ratio: 0.81
[6]
  inhibition: 30.2%
[7]
  viability at 70 h, 1 µM: 104%
[8]
  viability at 70 h, 30 µM: 89.1%
[9]
  inhibition at 30 µM: 72.5%
[21]
  Ratio: 0.68
[10]
  inhibition at 3 µM: 17.1%
[12]
  viability at 70 h, 3 µM: 103%

## COc1ccc(-c2oc3cc(O)cc(O)c3c(=O)c2O[C@@H]2O[C@H](CO)[C@@H](O)[C@H](O)[C@H]2O)cc1O
[2]
  inhibition at 1 µM: 7.7%
[4]
  viability at 70 h, 10 µM: 86.2%
[5]
  inhibition at 10 µM: -10.7%
[6]
  inhibition: 33.1%
[7]
  viability at 70 h, 1 µM: 93.4%
[10]
  inhibition at 3 µM: 3.3%
[12]
  viability at 70 h, 3 µM: 91.3%

## O=c1cc(-c2ccc(O[C@@H]3O[C@H](CO)[C@@H](O)[C@H](O)[C@H]3O)c(O)c2)oc2cc(O)cc(O)c12
[2]
  inhibition at 1 µM: 27.7%
[4]
  viability at 70 h, 10 µM: 114%
[5]
  inhibition at 10 µM: 38.6%
[6]
  inhibition: 41.7%
[7]
  viability at 70 h, 1 µM: 99.6%
[10]
  inhibition at 3 µM: 31%
[11]
  inhibition: 4.4%
[12]
  viability at 70 h, 3 µM: 105%

## COc1ccc(-c2cc(=O)c3c(O)cc(O)cc3o2)cc1O[C@@H]1O[C@H](CO)[C@@H](O)[C@H](O)[C@H]1O
[13]
  Ratio: 0.77
[14]
  Ratio: 1.08
[15]
  Ratio: 0.92
[1]
  viability at 70 h, 100 µM: 66.2%
[16]
  Ratio: 0.93
[17]
  Ratio: 1.22
[2]
  inhibition at 1 µM: 6.3%
[3]
  inhibition at 100 µM: 61.5%
[18]
  Ratio: 1.09
[4]
  viability at 70 h, 10 µM: 94.5%
[5]
  inhibition at 10 µM: 40.6%
[19]
  Ratio: 0.99
[20]
  Ratio: 1.08
[6]
  inhibition: 28.5%
[7]
  viability at 70 h, 1 µM: 92.8%
[8]
  viability at 70 h, 30 µM: 79.4%
[9]
  inhibition at 30 µM: 44.1%
[21]
  Ratio: 0.85
[10]
  inhibition at 3 µM: 18%
[12]
  viability at 70 h, 3 µM: 91.4%

## O=c1c(O)c(-c2ccc(O[C@@H]3O[C@H](CO)[C@@H](O)[C@H](O)[C@H]3O)c(O)c2)oc2cc(O)cc(O)c12 [SPIRAEOSIDE]
[1]
  viability at 70 h, 100 µM: 74%
[2]
  inhibition at 1 µM: 22.4%
[3]
  inhibition at 100 µM: 21.4%
[4]
  viability at 70 h, 10 µM: 106%
[5]
  inhibition at 10 µM: 31.4%
[6]
  inhibition: 51%
[7]
  viability at 70 h, 1 µM: 105%
[8]
  viability at 70 h, 30 µM: 95.8%
[9]
  inhibition at 30 µM: 34.7%
[10]
  inhibition at 3 µM: 24.4%
[11]
  inhibition: 70.7%
[12]
  viability at 70 h, 3 µM: 107%
